One block for each molecule: values may come before it.
Assays:
mice = assay: Acute toxicity (dead/treated animals); format: in vivo
Description: The SMA inhibiting effect and the acute toxicity data (dead/treated animals, shown in brackets) of the new compounds are provided in Table II.
The experiments were performed according to the method of S.Irwin [Psychopharm. 13, 222 (1968)].

[1] = test system: stereotypy induced by amphetamine; assay: Potentiation of the stereotypy induced by amphetamine, scale of Constall and Naylor; format: in vivo; conditions: ip; 10 mg/kg i.p. + amphetamine 3 mg/kg s.c.
Description: The potentiation of the stereotypy evoked by amphetamine was evaluated according to the scale of Constall and Naylor (Eur. J. Pharmacol. 18, 95, 1972).
*10 mg/kg i.p. + amphetamine 3 mg/kg s.c.

[2] = test system: convulsions evoked by pentetrazole; assay: Inhibition of pentetrazole-evoked convulsions, method of Goodmann et al.; format: in vivo; conditions: Mus musculus, ip; mice, 30 mg/kg i.p.; 50 mg/kg i.v. pentetrazole
Description: The compounds of general formula (I) exert a moderate anticonvulsive effect, too. This latter was measured in mice applying the method of Goodmann et al.[J. Pharmacol. Exp. Ther. 106, 319, (1952)]. The convulsions evoked by 50 mg/kg i.v. of pentetrazole were inhibited by 30-40% and 50-55% after the i.p. administration of 30 mg/kg of the compounds of Examples 10., 11., 13., 19., 28., 35, 40., and Examples 34 and 38, respectively.

[3] = test system: hippocampal CA1 field potentials (glutamate acting mainly through AMPA receptors); assay: Inhibition of CA1 field potentials in hippocampal slices (glutamatergic transmission), method of Tarnawa et al.; parameters: species or system rat; conditions: for Inhibition (%) 30 minutes after drug administration / Inhibition (%) 60 minutes after drug administration / Inhibition (%) after 30 minutes wash-out / efficacy compared to GYKI-52466: 50 μM; for Inhibition (%) after 30 minutes wash-out: *p < 0.05 compared to the 60 minutes value; for duration of action compared to known molecules / GYKI-52466 / efficacy compared to GYKI-52466: hippocampal slices; for effect of 30 minutes wash-out on the inhibition: wash-out lasting 30 minutes vs preceding 60 minutes incubation
Description: The effects of the compounds on the glutamatergic transmission were studied in hippocampal slices applying the method of Tarnawa et al. (Acta Physiol. Hung., 79, 163, 1992). 400 μm thick slices were prepared from rat brain and maintained in a chamber of interface type under simulated […] conditions. The Schaffer collaterals were stimulated and field potentials were recorded from the pyramidal cells of the hippocampal CA1 region. The neurotransmitter involved in this process is glutamate acting mainly through AMPA receptors.

[4] = test system: hippocampal CA1 field potentials (glutamate acting mainly through AMPA receptors); conditions: known AMPA antagonist; cited from earlier work
[5] = background statement; cited from earlier work

Compound: COc1ccc(/C=C/C2=NNC(C)Cc3cc4c(cc32)OCO4)cc1OC (stereo not drawn) [Example 1, 1-(3,4-Dimethoxystyryl)-4-methyl-7,8-methylenedioxy-3,4-dihydro-5H-2,3-benzodiazepine]
acute toxicity (dead/treated animals) (mice; i.p. 300 mg/kg): 0/5
acute toxicity (dead/treated animals) (mice; p.o. 1000 mg/kg): 0/5

Compound: COc1cc2c(cc1OC)C(/C=C/c1ccc3c(c1)OCO3)=NNC(C)C2 (stereo not drawn) [Example 3]
acute toxicity (dead/treated animals) (mice; i.p. 300 mg/kg): 0/5
acute toxicity (dead/treated animals) (mice; p.o. 1000 mg/kg): 0/5

Compound: COc1cc2c(cc1OC)C(/C=C/c1ccc(N(C)C)cc1)=NNC(C)C2 (stereo not drawn) [Example 7]
change in vivo at 10 mg/kg [1]: 90.2%

Compound: CC1Cc2cc3c(cc2C(/C=C/c2ccc4c(c2)OCO4)=NN1)OCO3 (stereo not drawn) [Example 8]
change in vivo at 10 mg/kg [1]: 113%

Compound: CC1Cc2cc3c(cc2C(/C=C/c2ccc(N(C)C)cc2)=NN1)OCO3 (stereo not drawn) [Example 9]
change in vivo at 10 mg/kg [1]: 141%

Compound: CCOc1cc2c(cc1OCC)C(/C=C/c1ccc(N(C)C)cc1)=NNC(C)C2 (stereo not drawn) [Example 10]
change in vivo at 10 mg/kg [1]: 176%
inhibition in vivo at 30 mg/kg [2]: 30 to 40%

Compound: COc1cc2c(cc1OC)C(/C=C/c1cccc(O)c1)=NNC(C)C2 (stereo not drawn) [Example 11]
inhibition in vivo at 30 mg/kg [2]: 30 to 40%

Compound: COc1ccc(/C=C/C2=NNC(C)Cc3cc4c(cc32)OCO4)cc1C(C)C (stereo not drawn) [Example 13]
inhibition in vivo at 30 mg/kg [2]: 30 to 40%

Compound: COc1cc2c(cc1OC)C(/C=C/c1ccccc1Br)=NNC(C)C2 (stereo not drawn) [Example 14]
change in vivo at 10 mg/kg [1]: 113%

Compound: COc1ccc(/C=C/C2=NN(C(C)=O)C(C)Cc3cc4c(cc32)OCO4)c(OC)c1 (stereo not drawn) [Example 19, 1-(2,4-Dimethoxystyryl)-3-acetyl-4-methyl-7,8-methylenedioxy-3,4-dihydro-5H-2,3-benzodiazepine]
inhibition in vivo at 30 mg/kg [2]: 30 to 40%

Compound: COc1cc2c(cc1OC)C(/C=C/c1ccccc1)=NN(C(C)=O)C(C)C2 (stereo not drawn) [Example 20, 1-Styryl-3-acetyl-4-methyl-7,8-dimethoxy-3,4-dihydro-5H-2,3-benzodiazepine]
acute toxicity (dead/treated animals) (mice; i.p. 300 mg/kg): 1/5

Inhibition (%) 30 minutes after drug administration [3]: 16.1 ± 13.4%
Inhibition (%) 60 minutes after drug administration [3]: 33.7 ± 7.60%
Inhibition (%) after 30 minutes wash-out [3]: 61.1 ± 4.56%
Compound: COc1ccc(/C=C/C2=NN(C(C)=O)C(C)Cc3cc(OC)c(OC)cc32)c(OC)c1 (stereo not drawn) [Example 21, 1-(2,4-Dimethoxystyryl)-3-acetyl-4-methyl-7,8-dimethoxy-3,4-dihydro-5H-2,3-benzodiazepine]

Compound: COc1cc2c(cc1OC)C(/C=C/c1cccc(OC)c1OC)=NN(C(C)=O)C(C)C2 (stereo not drawn) [Example 22, 1-(2,3-Dimethoxystyryl)-3-acetyl-4-methyl-7,8-dimethoxy-3,4-dihydro-5H-2,3-benzodiazepine]
acute toxicity (dead/treated animals) (mice; i.p. 300 mg/kg): 1/5
Inhibition (%) 30 minutes after drug administration [3]: 4.7 ± 0.84%
Inhibition (%) 60 minutes after drug administration [3]: 37.0 ± 9.19%
Inhibition (%) after 30 minutes wash-out [3]: 74.3 ± 11.53%

Compound: COc1cccc(/C=C/C2=NN(C(C)=O)C(C)Cc3cc4c(cc32)OCO4)c1OC (stereo not drawn) [Example 23, 1-(2,3-Dimethoxystyryl)-3-acetyl-4-methyl-7,8-methylenedioxy-3,4-dihydro-5H-2,3-benzodiazepine]
acute toxicity (dead/treated animals) (mice; i.p. 300 mg/kg): 0/5
acute toxicity (dead/treated animals) (mice; p.o. 1000 mg/kg): 0/5

Compound: CCC1c2cc(OC)c(OC)cc2C(/C=C/c2ccc([N+](=O)[O-])cc2)=NNC1C (stereo not drawn) [Example 26, 1-(4-Nitrostyryl)-4-methyl-5-ethyl-7,8-dimethoxy-3,4-dihydro-5H-2,3-benzodiazepine]
acute toxicity (dead/treated animals) (mice; i.p. 300 mg/kg): 0/5
acute toxicity (dead/treated animals) (mice; p.o. 1000 mg/kg): 0/5

Compound: CC1Cc2cc3c(cc2C(/C=C/c2ccccc2)=NN1)OCO3 (stereo not drawn) [Example 27, 1-Styryl-4-methyl-7,8-methylenedioxy-3,4-dihydro-5H-2,3-benzodiazepine]
acute toxicity (dead/treated animals) (mice; i.p. 300 mg/kg): 0/5
change in vivo at 10 mg/kg [1]: 183%

Compound: COc1cc2c(cc1OC)C(/C=C/c1ccc(Cl)c(Cl)c1)=NNC(C)C2 (stereo not drawn) [Example 28, 1-(3,4-Dichlorostyryl)-4-methyl-7,8-dimethoxy-3,4-dihydro-5H-2,3-benzodiazepine]
change in vivo at 10 mg/kg [1]: 92.5%
inhibition in vivo at 30 mg/kg [2]: 30 to 40%

Compound: COc1cc2c(cc1OC)C(/C=C/c1ccc([N+](=O)[O-])cc1)=NN(C(C)=O)C(C)C2 (stereo not drawn) [Example 30, 1-(4-Nitrostyryl)-3-acetyl-4-methyl-7,8-dimethoxy-3,4-dihydro-5H-2,3-benzodiazepine]
change in vivo at 10 mg/kg [1]: 100%

Compound: COc1cc2c(cc1OC)C(/C=C/c1ccc(N)cc1)=NNC(C)C2 (stereo not drawn) [Example 33, 1-(4-Aminostyryl)-4-methyl-7,8-dimethoxy-3,4-dihydro-5H-2,3-benzodiazepine]
change in vivo at 10 mg/kg [1]: 202%

Compound: CC1Cc2cc3c(cc2C(/C=C/c2ccc(N)cc2)=NN1)OCO3 (stereo not drawn) [Example 34, 1-(4-Aminostyryl)-4-methyl-7,8-methylenedioxy-3,4-dihydro-5H-2,3-benzodiazepine]
change in vivo at 10 mg/kg [1]: 92%
inhibition in vivo at 30 mg/kg [2]: 50 to 55%

Compound: CCC1c2cc(OC)c(OC)cc2C(/C=C/c2ccc(N)cc2)=NNC1C (stereo not drawn) [Example 35, 1-(4-Aminostyryl)-4-methyl-5-ethyl-7,8-dimethoxy-3,4-dihydro-5H-2,3-benzodiazepine]
inhibition in vivo at 30 mg/kg [2]: 30 to 40%

Compound: CCC1c2cc(OC)c(OC)cc2C(/C=C/c2ccc(N)cc2)=NN(C(C)=O)C1C (stereo not drawn) [Example 38, 1-(4-Aminostyryl)-3-acetyl-4-methyl-5-ethyl-7,8-dimethoxy-3,4-dihydro-5H-2,3-benzodiazepine]
inhibition in vivo at 30 mg/kg [2]: 50 to 55%

Compound: COc1cc2c(cc1OC)C(/C=C/c1ccc(NC(C)=O)cc1)=NN(C(C)=O)C(C)C2 (stereo not drawn) [Example 39, 1-(4-Acetylaminostyryl)-3-acetyl-4-methyl-7,8-dimethoxy-3,4-dihydro-5H-2,3-benzodiazepine]
change in vivo at 10 mg/kg [1]: 113%
Inhibition (%) 30 minutes after drug administration [3]: 85.3 ± 15.09%
Inhibition (%) 60 minutes after drug administration [3]: 100 ± 0%
Inhibition (%) after 30 minutes wash-out [3]: 97.5 ± 0.98%
duration of action compared to known molecules / GYKI-52466 [3]: surpass that of GYKI-52466
efficacy compared to GYKI-52466 [3]: at least equal efficacy to the molecule GYKI-52466
effect of 30 minutes wash-out on the inhibition [3]: not able to diminish the effect

Compound: CC(=O)Nc1ccc(/C=C/C2=NN(C(C)=O)C(C)Cc3cc4c(cc32)OCO4)cc1 (stereo not drawn) [Example 40, 1-(4-Acetylaminostyryl)-3-acetyl-4-methyl-7,8-methylenedioxy-3,4-dihydro-5H-2,3-benzodiazepine]
change in vivo at 10 mg/kg [1]: 99.7%
inhibition in vivo at 30 mg/kg [2]: 30 to 40%
Inhibition (%) 30 minutes after drug administration [3]: 14.8 ± 7.10%
Inhibition (%) 60 minutes after drug administration [3]: 25.8 ± 3.04%
Inhibition (%) after 30 minutes wash-out [3]: 35.4 ± 2.67%

Compound: CCC1c2cc3c(cc2C(/C=C/c2ccc(NC(C)=O)cc2)=NN(C(C)=O)C1C)OCO3 (stereo not drawn) [Example 41, 1-(4-Acetylaminostyryl)-3-acetyl-4-methyl-5-ethyl-7,8-methylenedioxy-3,4-dihydro-5H-2,3-benzodiazepine]
acute toxicity (dead/treated animals) (mice; i.p. 300 mg/kg): 0/5
acute toxicity (dead/treated animals) (mice; p.o. 1000 mg/kg): 0/5
Inhibition (%) 30 minutes after drug administration [3]: 79.5 ± 10.10%
Inhibition (%) 60 minutes after drug administration [3]: 100 ± 0%
Inhibition (%) after 30 minutes wash-out [3]: 98.6 ± 2.67%
duration of action compared to known molecules / GYKI-52466 [3]: surpass that of GYKI-52466
efficacy compared to GYKI-52466 [3]: at least equal efficacy to the molecule GYKI-52466
effect of 30 minutes wash-out on the inhibition [3]: not able to diminish the effect

Compound: CC1=NN=C(c2ccc(N)cc2)c2cc3c(cc2C1)OCO3 [GYKI-52466, 1-(4-aminophenyl)-4-methyl-7,8-methylenedioxy-5H-2,3-benzodiazepine, reference compound]
Inhibition (%) 30 minutes after drug administration [3]: 94.5 ± 2.07%
Inhibition (%) 60 minutes after drug administration [3]: 100 ± 0%
Inhibition (%) after 30 minutes wash-out [3]: 84.6 ± 7.37%
effect of 30 minutes wash-out on the inhibition [3]: significantly smaller than that observed after the preceding incubation period
inhibition of the CA1 field potentials (in words) [4]: concentration-dependently inhibits the CA1 field potentials
duration of action (in words) [5]: rather short
known pharmacological activity (in words) [5]: non-NMDA-glutamic acid antagonist having spasmolytic and antiischemic activities

Compound: COc1cc2c(cc1OC)C(c1cccc(Cl)c1)=NN=C(C)C2 [Girisopam, 1-(3-chlorophenyl)-4-methyl-7,8-dimethoxy-5H-2,3-benzodiazepine, reference compound]
acute toxicity (dead/treated animals) (mice; i.p. 300 mg/kg): 0/6

Source: patent publication US6075018A, “1-[2-(substituted vinyl)]-3,4-dihydro-4-dihydro-5H-2,3-benzodiazepine derivatives” (priority 1995, dated 2000)
